The target of the assay is SsTyrH (heme-dependent L-tyrosine hydroxylase). The experiment in a line: UV–vis substrate titration. The assay is classed as binding, Streptomyces sclerotialus.

Structures are written as SMILES.

For `N[C@@H](Cc1ccc(O)cc1)C(=O)O` [Tyr, L-tyrosine], the Kd (commonly the concentration at which binding is half-saturated) is 109 ± 5 µM.

The record behind these values is article PMC8283942 (Journal of the American Chemical Society, 2021).
